The source of these data is ChEMBL document CHEMBL1201862, “PubChem BioAssay data set” (2004).

Test systems include A549; ACHN; DMS-114; HCC 2998; HL-60; IGROV-1; K562; KM12; LOX IMVI; M14; MOLT-4; NCI-H522; RPMI-8226; SF-539; SK-MEL-2; SR; TK-10; UACC-257; UACC-62; NCI/ADR-RES.
What all share (assay): inhibition of tumour cell growth, NCI panel, 48 h

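Five compound concentrations were applied to cells in 96-well plates for 48 hours; endpoints were derived by simple linear interpolation of the resulting dose-response curve. GI50 is the concentration that inhibits growth by half.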 Active and inactive are the calls of the source. Cut-off read from the data, not from the text of the source: active = GI50 up to about 1.1 µM and inactive = higher. Where only a bound is given, the exact number is not on record here.

On to `NC(S)=Nc1cc(Cl)ccc1Cl`, for which the GI50 in the assay with A549, with ACHN, in the assay on DMS-114, in the assay on HCC 2998, in the assay with HL-60 and with IGROV-1 was > 100 µM (inactive) throughout. The GI50 with K562, in the assay on KM12, in the assay with LOX IMVI, in the assay with M14, with MOLT-4 and in the assay with NCI-H522 was > 100 µM (inactive) each time. Besides, the GI50 with RPMI-8226, in the assay on SF-539, with SK-MEL-2, in the assay with SR, with TK-10 and in the assay with UACC-257 was > 100 µM (inactive) each time. Also, the GI50 in the assay with UACC-62 is > 100 µM (inactive).
Consider `O=C(NCCCCCCNC(=O)n1cc(F)c(=O)[nH]c1=O)NCCCOCCOCCCNC(=O)C(O)C(O)C(O)C(O)CO` (stereo not drawn), for which the GI50 was > 2.05 µM (inactive) in the assay with A549; > 2.5 µM (inactive) in the assay with DMS-114; 0.152 µM (active) with HCC 2998; > 2.29 µM (inactive) in the assay with HL-60; > 2.5 µM (inactive) in the assay with IGROV-1; > 2.5 µM (inactive) with K562. The GI50 in the assay on KM12 is > 2.5 µM (inactive); in the assay with LOX IMVI, > 2.16 µM (inactive); in the assay with MOLT-4, > 2.5 µM (inactive); in the assay on NCI-H522 it was > 2.5 µM (inactive); in the assay with NCI/ADR-RES, > 2.5 µM (inactive); with RPMI-8226, > 2.5 µM (inactive). In addition, the GI50 in the assay with SF-539 is > 1.84 µM (inactive); in the assay with SK-MEL-2 it was > 2.5 µM (inactive); in the assay with UACC-257, > 2.5 µM (inactive); with UACC-62 it was > 2.5 µM (inactive).
Regarding `COc1cc(/N=N\c2cccc(S(=O)(=O)O)c2)c(C)cc1/N=N\c1ccc(/C=C/c2ccc(/N=[N+](/[O-])c3ccc(/C=C/c4ccc(/N=N\c5cc(C)c(/N=N/c6cccc(S(=O)(=O)O)c6)cc5OC)cc4)c(S(=O)(=O)O)c3)cc2S(=O)(=O)O)cc1`, the GI50 with A549, in the assay on DMS-114, in the assay with HCC 2998, with HL-60, with IGROV-1 and with K562 was > 100 µM (inactive) each time. Also, the GI50 in the assay on KM12 is > 100 µM (inactive); in the assay on LOX IMVI, > 100 µM (inactive); with MOLT-4, > 100 µM (inactive); with NCI-H522 it was > 93.5 µM (inactive); in the assay on NCI/ADR-RES, > 100 µM (inactive); in the assay with SF-539 it was > 100 µM (inactive). In addition, the GI50 in the assay with SK-MEL-2, in the assay on UACC-257 and with UACC-62 was > 100 µM (inactive) throughout.
For the compound `COc1ccc(-c2cc(-c3ccccc3)c(C#N)c(=O)n2C2OC(CO)C(O)C(O)C2O)cc1` (stereo not drawn), the GI50 in the assay with A549, in the assay with ACHN, with DMS-114, in the assay on HCC 2998, with HL-60 and with IGROV-1 was > 100 µM (inactive) throughout. The GI50 in the assay with K562, with KM12, with LOX IMVI, in the assay with M14, with MOLT-4 and with NCI-H522 was > 100 µM (inactive) each time. Also, the GI50 with RPMI-8226, in the assay on SF-539, in the assay with SR, in the assay with TK-10, in the assay on UACC-257 and with UACC-62 was > 100 µM (inactive) in each case.
